# Measurements as given in patent US10562882B2, “Piperidine derivatives for use in the treatment or prevention of psychiatric and neurological conditions” (Takeda Pharmaceutical Company Limited, priority 2013, dated 2020).
# Molecular target: human PKR1 receptors (Homo sapiens (Human), UniProt Q8TCW9)
# Experiment: PKR1 antagonist intracellular calcium (FLIPR) assay, block of PK1-mediated calcium release
# Format: cell-based
# Conditions: RBL2H3 cells expressing human PKR1; PK1 at EC80; minimum of two independent assays
# Procedure: Prokineticin receptor 1 (PKR1) antagonists may be functionally assessed by measurement of change in intracellular calcium levels induced by Gq mediated increase in inositol triphosphate (IP3) levels. The ability of a compound to block the intracellular release of calcium mediated by PK1 in RBL2H3 cells expressing human PKR1 receptors is determined as a measure of the compound's antagonist activity in vitro.
# Approximately 10,000 cells per assay well are seeded in normal culture medium in a 384 well plate (Corning). Twenty-four hours after seeding, the cells are loaded with a calcium sensitive fluorescent dye by replacing the culture medium with assay buffer (1× Hanks buffered saline, 25 mM HEPES, 0.1% w/v fatty acid free BSA (bovine serum albumin), pH 7.4) containing 1 mM probenecid and 1× Calcium 5 Reagent (Molecular Devices). Cells are incubated at 37° C. for 1 hour to allow for dye uptake.
# To test for antagonist activity, test compounds at a final concentration range between 0.32 nM-10 μM (diluted in assay buffer) are added to duplicate assay wells and allowed to incubate for 10 minutes prior to stimulation with PK1. After incubation with test compounds the assay plate is placed in a FLIPR Tetra (Molecular Devices) and PK1 (diluted in assay buffer) is added at the determined EC80 concentration (final). Ligand-dependent changes in intracellular calcium levels are determined by measuring changes in fluorescence of the dye at […] following excitation at 485 nm. […] A minimum of two IC50 values determined from independent assays are generated for each compound.
# Sequence of human PKR1 receptors (Q8TCW9 whole entry): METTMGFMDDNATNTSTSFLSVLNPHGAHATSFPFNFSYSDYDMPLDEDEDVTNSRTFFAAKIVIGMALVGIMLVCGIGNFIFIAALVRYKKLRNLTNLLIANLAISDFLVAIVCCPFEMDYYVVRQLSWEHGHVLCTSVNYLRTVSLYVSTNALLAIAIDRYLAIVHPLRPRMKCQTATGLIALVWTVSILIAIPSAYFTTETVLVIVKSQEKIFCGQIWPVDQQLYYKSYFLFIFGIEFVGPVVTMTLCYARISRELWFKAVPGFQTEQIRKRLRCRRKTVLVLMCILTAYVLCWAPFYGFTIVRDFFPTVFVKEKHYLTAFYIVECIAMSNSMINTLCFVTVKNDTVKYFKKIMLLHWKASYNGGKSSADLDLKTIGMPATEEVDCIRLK
row,Compound,IC50
1,"CC(C)n1c(C2CCCN(C(=O)c3ccnc(N(C)C)c3)C2)nc2ccccc21 (single isomer, unassigned; enantiomer 2) [Example 3, N,N-Dimethyl-4-{3-[1-(propan-2-yl)-1H-1,3-benzodiazol-2-yl]piperidine-1-carbonyl}pyridin-2-amine (enantiomer 2)]",9.06 µM
2,"CN(C)c1cc(C(=O)N2CCCC(c3nc4ccccc4n3C)C2)ccn1 (stereo not shown) [Example 4, N,N-Dimethyl-4-[3-(1-methyl-1H-1,3-benzodiazol-2-yl)piperidine-1-carbonyl]pyridin-2-amine]",1.22 µM
3,"CC(C)n1c(C2CCCN(C(=O)c3cnnc(Cl)c3)C2)nc2ccccc21 (stereo not shown) [Example 5, 2-[1-(6-Chloropyridazine-4-carbonyl)piperidin-3-yl]-1-(propan-2-yl)-1H-1,3-benzodiazole]",7.46 µM
4,"CNc1cc(C(=O)N2CCCC(c3nc4ccccc4n3C(C)C)C2)cnn1 (stereo not shown) [Example 6, N-Methyl-5-{3-[1-(propan-2-yl)-1H-1,3-benzodiazol-2-yl]piperidine-1-carbonyl}pyridazin-3-amine]",1.74 µM
5,"CCn1cc(C(=O)N2CCCC(c3nc4ccccc4n3C(C)C)C2)cn1 (stereo not shown) [Example 7, 2-[1-(1-Ethyl-1H-pyrazole-4-carbonyl)piperidin-3-yl]-1-(propan-2-yl)-1H-1,3-benzodiazole]",1.82 µM
6,"CN(C)c1cc(C(=O)N2CCCC(c3cc4ccccc4n3C)C2)ccn1 (stereo not shown) [Example 8, N,N-Dimethyl-4-[3-(1-methyl-1H-indol-2-yl)piperidine-1-carbonyl]pyridin-2-amine]",1.07 µM
7,"CNc1cc(C(=O)N2CCCC(c3cc4ccccc4n3C)C2)cnn1 (stereo not shown) [Example 9, N-Methyl-5-[3-(1-methyl-1H-indol-2-yl)piperidine-1-carbonyl]pyridazin-3-amine]",1.08 µM
8,"CCn1c(C2CCCN(C(=O)c3cnnc(N(C)C)c3)C2)cc2ccccc21 (stereo not shown) [Example 11, 5-[3-(1-Ethyl-1H-indol-2-yl)piperidine-1-carbonyl]-N,N-dimethylpyridazin-3-amine]",0.94 µM
9,"CC(C)n1c(C2CCCN(C(=O)c3cnnc(N(C)C)c3)C2)cc2ccccc21 (stereo not shown) [Example 13, N,N-Dimethyl-5-{3-[1-(propan-2-yl)-1H-indol-2-yl]piperidine-1-carbonyl}pyridazin-3-amine]",0.76 µM
10,"CC(C)n1c(C2CCCN(C(=O)c3cn(C)nc3N)C2)cc2ccccc21 (stereo not shown) [Example 16, 1-Methyl-4-{3-[1-(propan-2-yl)-1H-indol-2-yl]piperidine-carbonyl}-1H-pyrazol-3-amine]",1.44 µM

# Stronger by IC50, values ahead:
row,IC50,Compound
1,0.32 µM,"CC(C)n1c(C2CCCN(C(=O)c3ccnc(N(C)C)c3)C2)nc2ccccc21 (racemic) [Example 1, N,N-Dimethyl-4-{3-[1-(propan-2-yl)-1H-1,3-benzodiazol-2-yl]piperidin-1-carbonyl}pyridin-2-amine (racemic)]"
2,0.33 µM,"CC(C)n1c(C2CCCN(C(=O)c3ccnc(N(C)C)c3)C2)nc2ccccc21 (single isomer, unassigned; enantiomer 1) [Example 2, N,N-Dimethyl-4-{3-[1-(propan-2-yl)-1H-1,3-benzodiazol-2-yl]piperidine-1-carbonyl}pyridin-2-amine (enantiomer 1)]"
3,0.39 µM,"CCn1c(C2CCCN(C(=O)c3ccnc(N(C)C)c3)C2)cc2ccccc21 (stereo not shown) [Example 10, 4-[3-(1-Ethyl-1H-indol-2-yl)piperidine-1-carbonyl]-N,N-dimethylpyridin-2-amine]"
4,0.48 µM,"CCn1c(C2CCCN(C(=O)c3cnnc(NC)c3)C2)cc2ccccc21 (stereo not shown) [Example 12, 5-[3-(1-Ethyl-1H-indol-2-yl)piperidine-1-carbonyl]-N-methylpyridazin-3-amine]"
5,0.54 µM,"CNc1cc(C(=O)N2CCCC(c3cc4ccccc4n3C(C)C)C2)cnn1 (stereo not shown) [Example 14, N-Methyl-5-{3-[1-(propan-2-yl)-1H-indol-2-yl]piperidine-1-carbonyl}pyridazin-3-amine]"
6,0.33 µM,"CCn1cc(C(=O)N2CCCC(c3cc4ccccc4n3C(C)C)C2)cn1 (stereo not shown) [Example 15, 2-{1-[(1-Ethyl-1H-pyrazol-4-yl)carbonyl]piperidin-3-yl}-1-(propan-2-yl)-1H-indole]"
